# Experimental data reported in a melting point compilation (Tetko et al.; mined from patent text by program, amines drawn as free bases though some values may be those of a salt).
row,melting point,SMILES
1,334 °C,Cn1cc(C(=O)O)c(=O)c2cc(Cl)c(N3CCOCC3)cc21
2,124 to 125 °C,CCCC(=O)c1cnc2c(OCCOC)cccc2c1Nc1ccc(F)cc1C
3,99 to 100 °C,COC(=O)CCCC(=O)N(CCc1c[nH]c2ccccc12)CC1CC1
4,196 to 198 °C,CC(C)(C)OC(=O)NCCCn1cnc2c(N)nc3ccccc3c21
5,230 °C,CCOc1cc(C(=O)O)cc(N)c1C(=O)c1ccccc1
6,247 to 249 °C,COC(=O)C(=O)Nc1cccc2c1C(=O)N(C1CCC(=O)NC1=O)C2=O (configuration not stated)
7,216 to 218 °C,COc1ccc(-c2cccs2)c2c(OC)ccc(-c3cccs3)c12
8,188 to 189 °C,COc1ccc(Nc2ccc(Cl)cc2C(=O)O)cc1
9,121 to 124 °C,N#Cc1c(NC(=O)CO)cccc1N1CCCCC1
10,49 °C,COc1cc(CN(C(N)=S)[C@@H](COC(=O)C(C)(C)C)Cc2ccccc2)ccc1OCCN
11,110 to 114 °C,CCN(CC)CCNC(=O)c1cc(Cl)c(N)cc1OCCS(C)=O (configuration not stated)
12,117 to 118 °C,CN(C)C(=O)COc1ccc2c(c1)C[C@@H](NC(=O)OCc1ccccc1)CC2
13,114 to 115 °C,Cc1c(Br)cc2c(c1C)OCC2c1ccc(C(C)C)cc1 (configuration not stated)
14,74 to 76 °C,CCCCCCCCCCCCCCCCCC(=O)NCC(C)(C)NCC(O)c1cc(Cl)c(N)c(Cl)c1 (configuration not stated)
15,114 to 115 °C,CC(C)c1cc(C(=O)C=CC(=O)N2CCN(C)CC2)ccc1OCC(=O)Nc1nc2ccccc2s1
16,86 to 87 °C,CNC(=O)C(=O)CCCCCON=Cc1ccc(-c2ccccc2)cc1
17,132 °C,NCCCCNC(=O)C1(NC(=O)CCCC(=O)O)Cc2ccccc2C1
18,182 to 184 °C,COc1ccc(-c2cn(C)cc(-c3ccc(OC)c(OC)c3)c2=O)cc1OC
19,112 to 115 °C,O=C(CNC(=O)[C@@H]1CCCN1C(=O)O)NCc1ccccc1
20,130 to 132 °C,CCOC(=O)CC[C@H](NC(=O)c1ccc(N)cc1F)C(=O)OCC

row,melting point,SMILES
1,275 to 279 °C,O=C(c1cccc([N+](=O)[O-])c1)n1c2cc(O)c(O)cc2c2ccc(O)c(O)c21
2,123 to 125 °C,Cc1cc(-c2ccccc2)nn1C(C)(C)C(=O)N(C)C
3,88 to 92 °C,C=CC(C)c1cc(C)c2c(c1)C(=O)CC2 (configuration not stated)
4,180 to 184 °C,CCCNC(=O)C(C#N)=NNc1ccccc1-c1ccccc1
5,75 to 77 °C,COC(=O)c1cc(Cl)cc(Cl)n1
6,115 to 116 °C,CC(C)n1nc(-c2sc(NCc3ccco3)nc2-c2ccccc2)ccc1=O
7,200 to 203 °C,O=c1oc2c(c(O)c1C(c1cccc(S(=O)(=O)Nc3ccccc3)c1)C1CC1)CCCCCC2 (configuration not stated)
8,155 to 156 °C,C=C(C(=O)OC)C(O)c1c(C)n(C(=O)OC(C)(C)C)c2ccc(C)c(O)c12 (configuration not stated)
9,270 to 275 °C,Cc1ccccc1C(=O)Nc1ccc(C(=O)O)cc1
10,115 to 118 °C,COc1ccc(C(N)=S)c(OC)c1
11,79 to 80 °C,Cc1cc(C)c2c(c1C)O[C@@H](C)[C@H]2c1ccc(C(C)C)cc1 (relative stereo)
12,119 to 121 °C,C=CCOC(=O)c1ccc(S(C)=O)c([N+](=O)[O-])c1 (configuration not stated)
13,149 °C,CC(C)(Sc1ccc2c(-c3ccccc3F)noc2c1Cl)C(=O)O
14,227 to 230 °C,COc1ccc(C=C2c3ccccc3C(=O)c3ccccc32)cc1OCC(=O)O
15,69 to 70 °C,COC(=O)Cc1ccc(OC[C@@H](C)NC[C@H](O)c2ccccc2)cc1
16,131 to 134 °C,CC(=O)N1c2ccccc2CC1c1cc(Cl)ccc1NC(=O)C(C)(C)C (configuration not stated)
17,183 to 185 °C,NC(=O)N(O)CCNC(=O)c1cccc(OCc2ccccc2)c1
18,258 to 260 °C,CC(=O)c1ccc2c(c1)C1(c3ccccc3-2)c2cc(C(C)=O)ccc2-c2ccc(C(C)=O)cc21
19,260 °C,NC(=O)c1cc(Cl)c(NC(=O)CCl)c(Cl)c1
20,153 to 154 °C,Cc1cc(C)c2ncc(C#N)c(-c3ccccc3Cl)c2c1

row,melting point,SMILES
1,169 to 172 °C,Cc1nn(CC(F)(F)COC(=O)c2cccnc2)c(-c2ccc(F)cc2)c1-c1ccc2c(c1)NC(=O)CO2
2,92 to 93.9 °C,O=CN(O)CCCC(O)CS(=O)(=O)c1ccccc1Oc1ccc(OC(F)(F)F)cc1 (configuration not stated)
3,169 to 172 °C,C#CCNc1nc2cc3ccccc3cc2nc1Cl
4,120 to 121 °C,Cc1ccccc1N1CCc2c(N(C)C)nc3c(C)cccc3c21
5,177 to 179 °C,Cc1cc(C)cc(Sc2cncc3sc(C(N)=O)cc23)c1
6,244 °C,COc1ccc(S(=O)(=O)N(CC(N)=O)c2c(CCc3ccccc3)cccc2OC)cc1OC
7,173 to 174 °C,O=C(NCc1ccc(Cl)cc1)c1cn2c3c(cc(CCCO)cc3c1=O)OCC2(CO)CO
8,145 to 146 °C,COC(=O)c1cc2c(OC)ccc(OC)c2[nH]1
9,172 to 173 °C,CC(=O)NC(Cc1csc2ccccc12)C(=O)C=Cc1cc(C(F)(F)F)cc(C(F)(F)F)c1 (configuration not stated)
10,168 to 169 °C,Cc1ccc(NC(=O)c2cccc(N(C)C)c2)cc1NC(=O)c1cccc(N(C)S(C)(=O)=O)c1
11,82 to 83 °C,CCOC(=O)/C=C/C=C/c1ccc(CCc2nc(-c3ccccc3)oc2C)cc1
12,199 °C,CCOC(=O)C1C(=O)Nc2ccccc2SC1c1ccccc1 (configuration not stated)
13,130 to 131 °C,CC=Cn1c(C)c(C)c2cnnc(NCc3ccccc3)c21
14,156 to 158 °C,CCCSc1ncc(C(=O)N[C@H](C(=O)O)[C@@H](C)CC)n1Cc1ccccc1Cl
15,168 to 170 °C,CC(=O)OC1CCC2(C)C(=CCC3C2CCC2(C)C(C(C)CC(F)(F)CC(C)(C)O)CCC32)C1 (configuration not stated)
16,177 to 179 °C,Cc1ccc(-c2nn(-c3cccc(OC(F)(F)F)c3)c(N)c2C(N)=O)cc1
17,154 to 155 °C,Cn1cccc1-c1cc(OC(F)F)n(-c2ccc(NC(=O)c3ccncc3F)cc2)n1
18,80 to 82 °C,CCCOc1ccc(Br)c(C(=O)C=Cc2ccc3c(c2)OCO3)c1
19,155 to 156 °C,Cc1ccc(-c2cc3onc(-c4ccccc4)c3c(=O)n2C)cc1

# The remaining lines, values behind:
row,SMILES,melting point
1,O=C1c2ccc(S(=O)(=O)c3ccccc3)cc2C(=O)c2c1c(Oc1ccccc1)c1ccccc1c2Oc1ccccc1,260 to 270 °C
2,CCc1c(-c2ccc(N3CCN(C)CC3)nn2)ssc1=S,182 °C
3,CCOC(=O)C(C(=O)OCC)C(=O)C1CCC2C3CCC4CC(O)CCC4(C)C3C(=O)CC12C (configuration not stated),116 to 117 °C
4,Cc1c(-c2ccc(O)cc2)n(Cc2ccc(OCCN3CCCCCCC3)cc2)c2ccc(O)cc12,98 to 102 °C
5,O=S(=O)(F)c1cc(Cl)c(Cl)cc1Cl,80 to 83 °C
6,C[C@]1(Cn2ccnc2)[C@H](C(=O)O)N2C(=O)C[C@H]2S1(=O)=O,161 °C
7,CNc1nc(-c2cccc3ccccc23)co1,164 to 166 °C
8,O=C(NC(Cc1ccc(C(F)(F)F)cc1)C(O)c1ccc(F)cc1)c1cccc(-c2ccccc2)c1 (configuration not stated),165 to 166 °C
9,N#Cc1ccc(OCCCc2cn(C(c3ccccc3)(c3ccccc3)c3ccccc3)cn2)cc1,187 to 188 °C
10,OCC(CO)C1c2ccccc2-c2ccccc21,101 °C
11,C=CCSc1nc(O)ns1,84 °C
12,N#CSc1ccc(N)c(C#N)c1,120 to 121 °C
13,N#Cc1nc(F)c(Cl)c(F)c1Cl,78 to 79 °C
14,CCSc1ccc(C(=O)NCc2ccc3c(c2)C(=O)N(C2CCC(=O)NC2=O)C3=O)nn1 (configuration not stated),205 to 207 °C
15,Nc1cc2c(cc1F)OC(=O)CN2,> 250 °C
16,CS(=O)(=O)c1ccc(-c2cc(CCCO[N+](=O)[O-])nn2CC2CCCCC2)cc1,76 to 77 °C
17,COc1ccc(-c2cnc3ncnn3c2NC2CCCC2)cc1,127 °C
18,O=c1cc(-c2cccc(Cl)c2)c2cc(C(c3ccc(Cl)cc3)n3ccnc3)cc3c2n1CCC3 (configuration not stated),195 °C
19,c1ccc(Sc2ccc(-c3ccccc3)s2)cc1,72.5 to 74.5 °C
20,N#Cc1cccc(S)c1,91 to 95 °C
21,CC(O)(CCBr)c1ccc(-c2cccc(F)c2)cc1 (configuration not stated),72 to 74 °C
22,CCC(Cn1nc(-c2ccccc2)c(-c2ccccc2)c(C#N)c1=O)[N+](=O)[O-] (configuration not stated),154 to 155 °C

row,SMILES,melting point
1,O=S(=O)(NCCO)c1cccc(-c2cccc(-c3nc(-c4ccc(C(F)(F)F)cc4)cc(C(F)(F)F)n3)c2)c1,153 °C
2,CN1CCC2(c3cccc(O)c3)CCCC2C1 (configuration not stated),151 to 153 °C
3,Cc1cc(N(N)c2ccccc2)nc(N)n1,173 to 174 °C
4,O=C(Cc1noc2ccccc12)NS(=O)(=O)c1ccc(Cl)cc1,209 to 211 °C
5,CC(Cl)(Cl)C1(O)NC(=O)C(=O)N1,220 °C
6,O=C(C1CN(S(=O)(=O)c2ccc3cc(Br)ccc3c2)CCN1C(=O)C1CCN(c2ccncc2)CC1)N1CCSCC1 (configuration not stated),250 to 258 °C
7,O=C(O)c1ccccc1-c1ccccc1CN1C(=O)c2ccccc2C1=O,198 °C
8,c1cc(NC2=NCCS2)c2occc2c1,143 to 145 °C
9,NC1=NN(c2ccc(OCc3ccccc3)cc2)CC1,148 to 149 °C
10,CC1(C)CCCNC1C(=O)O (configuration not stated),> 305 °C
11,Cc1ccc(=Nc2nnc(C(F)(F)F)s2)n(-c2cccc(C(F)(F)F)c2)c1,179 °C
12,OC1CCCC2Oc3ccccc3OC12 (configuration not stated),81 to 82 °C
13,CC1(C)CCN(Cc2ccc(COc3cccc4c3CN(C3CCC(=O)NC3=O)C4=O)cc2)CC1 (configuration not stated),168 to 170 °C
14,COc1ccc(C2NCCc3c2[nH]c2ccccc32)cc1F (configuration not stated),68 °C
15,CNc1ncnc2c1ncn2Cc1c(Cl)cccc1Cl,219 to 220 °C
16,CC(=S)NCC1CN(c2ccc(-c3csc(Cn4cnnn4)n3)c(F)c2)C(=O)O1 (configuration not stated),96 to 98 °C
17,CCCCCCCCCCCCCC(=O)N[C@H]1CCCNC(=O)C1,97 to 98 °C
18,CC1CC(=O)NN=C1c1ccc(-n2ccc(=O)cc2)cc1 (configuration not stated),254 to 256 °C
19,O=C(OCc1ccccc1)c1cc2cc(Br)ccc2nn1,171 °C
20,O=C1c2ccccc2C(=O)N1N1C2CCCCC21 (configuration not stated),75 to 77 °C
21,Cc1nc2oc3c(c2c(=O)[nH]1)CCCC3,> 300 °C
